Measured values published in paper PMC6934184, “Selective DNA-PKcs inhibition extends the therapeutic index of localized radiotherapy and chemotherapy” (The Journal of Clinical Investigation, 2019).

Biological target: T1, AKT2 (PKB beta) (Homo sapiens, UniProt P31751)
T1 construct: purchased Thermo Fisher Scientific (Life Technologies) SelectScreen
Experiment: SelectScreen Z'LYTE
Type: biochemical
Outline: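 Compound tested in SelectScreen activity assays, Z'LYTE for CSF1R, CDK1/cyclin B and MAP2K6 and Adapta for CAMK1. ATP for CAMK1 was listed as 10, and Km app was used for CSF1R. Results are expressed in percent.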

T1 sequence (P31751 whole entry): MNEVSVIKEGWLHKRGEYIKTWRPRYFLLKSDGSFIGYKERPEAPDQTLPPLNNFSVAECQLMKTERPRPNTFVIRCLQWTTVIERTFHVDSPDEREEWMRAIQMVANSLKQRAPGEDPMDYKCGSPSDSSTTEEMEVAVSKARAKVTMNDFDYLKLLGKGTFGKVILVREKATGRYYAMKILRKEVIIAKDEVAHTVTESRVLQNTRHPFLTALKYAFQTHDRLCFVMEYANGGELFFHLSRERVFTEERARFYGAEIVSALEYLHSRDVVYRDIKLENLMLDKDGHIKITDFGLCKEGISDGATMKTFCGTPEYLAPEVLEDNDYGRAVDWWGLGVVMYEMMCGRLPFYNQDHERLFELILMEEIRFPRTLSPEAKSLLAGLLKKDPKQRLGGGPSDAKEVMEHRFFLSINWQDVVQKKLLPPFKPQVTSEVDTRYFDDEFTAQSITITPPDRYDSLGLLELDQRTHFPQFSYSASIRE

## CN(C(=O)CN1CCOCC1)c1ccc2sc3c(-c4cccc5c(=O)cc(N6CC7CCC(C6)O7)oc45)cccc3c2c1 [NU5455]
  inhibition at 1 µM: 0%
